Results: PubChem BioAssay AID651554 (The Scripps Research Institute Molecular Screening Center, 2012)
Active and inactive are the calls of the source.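 How the source made its calls: active means either panel giving IC50 at or below 10 µM; inactive means both panels giving IC50 over 10 µM.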

Molecular target: Melanocortin receptor 4 (Homo sapiens) (UniProt P32245)
Assay: MC4R antagonists of Melanotan II cAMP, late-stage follow-up, cell-based, FRET, biased ligands (AID 651554)
Settings: U2OS MC4R, Melanotan II cAMP TR-FRET antagonist; run 1

Sequence of Melanocortin receptor 4 (Homo sapiens) (P32245 whole entry, looked up): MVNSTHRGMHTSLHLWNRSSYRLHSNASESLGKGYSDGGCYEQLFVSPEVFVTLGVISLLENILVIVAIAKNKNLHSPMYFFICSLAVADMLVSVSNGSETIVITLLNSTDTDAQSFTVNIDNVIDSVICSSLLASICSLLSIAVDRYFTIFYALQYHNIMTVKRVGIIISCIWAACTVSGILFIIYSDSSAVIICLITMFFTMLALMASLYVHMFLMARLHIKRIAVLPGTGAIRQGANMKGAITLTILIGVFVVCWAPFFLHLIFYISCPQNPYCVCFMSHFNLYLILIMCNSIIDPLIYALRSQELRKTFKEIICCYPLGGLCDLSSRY

| Structure (SMILES) | IC50 |
| --- | --- |
| CNC(=O)c1cc(Oc2ccc(NC(=O)CNc3ccc(Cl)c(C(F)(F)F)c3)cc2)ccn1 | > 50 µM (inactive) |
| COc1ccc(N(C(C)=O)C(C(=O)NC2CCCC2)c2cccs2)cc1OC (stereo not given) | > 50 µM (inactive) |
| CC(=O)c1ccc(Nc2nc3ccc(C(=O)N(CCC(C)C)CCC(C)C)cc3n2CCCN2CCCCC2)cc1 | 0.0174 µM |
| COc1ccccc1C1(CCNC(C)c2cccs2)CCOC(C(C)C)C1 (stereo not given) | 8.15 µM |
| CNC(=O)c1cc(Oc2ccc(NCC(=O)Nc3ccc(Cl)c(C(F)(F)F)c3)cc2)ccn1 | > 50 µM (inactive) |
| CCC1CCCCN1S(=O)(=O)c1ccc(NC(=O)c2ccccc2)cc1 (stereo not given) | > 50 µM (inactive) |
| CCC1CCCCN1S(=O)(=O)c1ccc(NC(=O)c2cccc(S(C)(=O)=O)c2)cc1 (stereo not given) | > 50 µM (inactive) |
| CNC(=O)c1cc(Oc2ccc(NC(=O)Nc3ccc(Cl)c(C(F)(F)F)c3)cc2)ccn1 | inactive |
| CCC1CCCCN1S(=O)(=O)c1ccc(NC(=O)c2ccnc(SC)n2)cc1 (stereo not given) | > 50 µM (inactive) |
| Cc1ccccc1CN1Cc2cnnn2-c2ccccc2C1C#N (stereo not given) | > 50 µM (inactive) |
| CC1CCCCN1S(=O)(=O)c1ccc(NC(=O)c2nc(S(C)(=O)=O)ncc2Cl)cc1 (stereo not given) | inactive |
| C#CC(=O)N(c1ccc(OC)c(OC)c1)C(C(=O)NC1CCCC1)c1cccs1 (stereo not given) | > 50 µM (inactive) |

Same assay, conditions: U2OS MC4R, Melanotan II cAMP TR-FRET antagonist; run 2

| Structure (SMILES) | IC50 |
| --- | --- |
| COc1ccc(N(C(=O)Cc2cccs2)C(C(=O)NC2CCCC2)c2cccs2)cc1OC (stereo not given) | > 50 µM (inactive) |
| CC(=O)c1ccc(Nc2nc3ccc(C(=O)N(CCC(C)C)CCC(C)C)cc3n2CCCN2CCCCC2)cc1 | 0.0365 µM |
| CCC1CCCCN1S(=O)(=O)c1ccc(NC(=O)c2ccnc(S(C)(=O)=O)n2)cc1 (stereo not given) | inactive |
| CCC1CCCCN1S(=O)(=O)c1ccc(NC(=O)c2ccccc2)cc1 (stereo not given) | > 50 µM (inactive) |
| CCC1CCCCN1S(=O)(=O)c1ccc(NC(=O)c2nc(S(C)(=O)=O)ncc2Br)cc1 (stereo not given) | > 50 µM (inactive) |
| O=C(NC1CCCC1)C(Nc1ccccc1)c1cccs1 (stereo not given) | > 50 µM (inactive) |
| Cc1ccc(CN2Cc3ccccc3-n3nncc3C2)c(C)c1 | > 50 µM (inactive) |
| Cc1ccc(CN2Cc3cnnn3-c3ccccc3C2C#N)c(C)c1 (stereo not given) | > 50 µM (inactive) |
| N#CC1c2ccccc2-n2nncc2CN1C(=O)c1ccccc1 (stereo not given) | > 50 µM (inactive) |
| Cc1ccccc1CN1Cc2ccccc2-n2nncc2C1 | > 50 µM (inactive) |
| COc1ccc(N(C(=O)c2ccco2)C(C(=O)NC2CCCC2)c2cccs2)cc1OC (stereo not given) | > 50 µM (inactive) |
| CC(=O)N(c1ccccc1)C(C(=O)NC1CCCC1)c1cccs1 (stereo not given) | > 50 µM (inactive) |
| CCC1CCCCN1S(=O)(=O)c1ccc(NC(=O)c2ccnc(S(C)=O)n2)cc1 (stereo not given) | > 50 µM (inactive) |
